Like-named read-outs stand apart in the source and are kept apart here.
Tests used:
C3a receptor (C3aR) = biological target: T1, C3a receptor (C3aR) (Homo sapiens, UniProt Q16581); assay: Competitive binding with [^125I]-C3a in HMDM
T1 construct: peripheral blood mononuclear cells were isolated from buffy coat (obtained from Australian Red Cross Blood Service, Kelvin Grove); endogenous in cells; host or cells: primary human monocyte-derived macrophages (HMDM) differentiated from CD14+ monocytes of donor buffy coat
T1 sequence (Q16581 1-482): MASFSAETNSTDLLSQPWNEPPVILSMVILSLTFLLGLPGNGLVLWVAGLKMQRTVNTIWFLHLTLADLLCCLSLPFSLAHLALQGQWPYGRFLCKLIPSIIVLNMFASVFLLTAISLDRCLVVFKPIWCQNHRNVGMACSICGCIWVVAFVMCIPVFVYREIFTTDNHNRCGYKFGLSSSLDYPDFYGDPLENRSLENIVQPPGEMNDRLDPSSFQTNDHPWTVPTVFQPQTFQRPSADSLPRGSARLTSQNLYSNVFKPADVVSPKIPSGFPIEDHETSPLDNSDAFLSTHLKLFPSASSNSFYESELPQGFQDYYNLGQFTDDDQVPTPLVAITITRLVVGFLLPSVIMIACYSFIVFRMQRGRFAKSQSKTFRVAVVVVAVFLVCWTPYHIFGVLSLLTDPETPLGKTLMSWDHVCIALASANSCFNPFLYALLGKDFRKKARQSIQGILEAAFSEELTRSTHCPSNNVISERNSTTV
Source text: For HMDM, peripheral blood mononuclear cells were isolated from buffy coat (obtained from Australian Red Cross Blood Service, Kelvin Grove) using Ficoll-paque density centrifugation (GE Healthcare Bio-Science, Uppsala, Sweden). CD^14+ monocytes were positively selected using CD^14+ MACS magnetic beads (Miltenyi Biotech, Auburn, Calif., USA). […] Cells were harvested by gentle scraping in saline solution and replated for use on Day 7. […] Unbound radioactivity was removed by filtration through glass microfiber filters GF/B (Whatman Iner. […] The filter was washed 3 times with cold buffer (50 mM Tris-HCl) pH 7.4. […] The −log IC50 for each compound was calculated for separate experiments and express as an arithmetic mean standard error (SE). IC50 values were expressed as a geometric mean.

C3aR = biological target: T2, C3aR (Homo sapiens, UniProt Q16581); assay: Calcium mobilization assay in HMDM (agonist/antagonist activity); format: cell-based; settings: for EC50 / pEC50 ± SEM: Table 9, Ca^2+ mobilization, HMDM; for EC50: read-out: EC50; for Emax at 10 µM: read-out: % agonist
T2 construct: peripheral blood mononuclear cells were isolated from buffy coat (obtained from Australian Red Cross Blood Service, Kelvin Grove); endogenous in cells; host or cells: primary human monocyte-derived macrophages (HMDM) differentiated from CD14+ monocytes of donor buffy coat
T2 sequence (Q16581 1-482): T1 sequence (Q16581 1-482)
Procedure: Harvested HMDM cells were washed with 0.9% NaCl solution by centrifugation at 2500 rpm for 5 min, followed by resuspension of the cell pellet with complete media. Cells were seeded at 5×10^4 cells/well in a 96-well black-wall, clear bottom plate (DKSH, Zurich), and left overnight to adhere at 37° C. On the day of the experiment, supernatant was removed and cells were incubated in dye loading buffer (Hank's Balanced Salt Solution (HBSS) with 4 μM Fluo-3, 25 μL pluronic acid, 1% fetal bovine serum (FBS) and 2.5 mM probenecid) for one hour at 37° C. Cells were then washed twice with HBSS and transferred to a Fluorostar spectrofluorimeter (BMG, Durham N.C.) for oxazole compound injection and fluorescence measurements.
Various compounds were examined in the calcium mobilization assay for agonist or antagonist activity compared to hC3a and to the known antagonist SB290157.
HMDMs were seeded into black-wall, clear bottom 96-well plates (Corning Incorporated, NY) at 50,000 cells/well and left to incubate at 37° C. with 5% CO2 overnight for cells to adhere. The medium was removed before being washed with the assay buffer (1×HBSS, 20 mM HEPES, 2.5 mM probenecid, pH 7.4). To each well was added 100 μL of dye-loading buffer made up of 12 mL calcium buffer, 1% FBS, 25 μL of Fluo-3 dye (final concentration of 4 μM) and 25 μL of 20% pluronic acid. The plate was covered in aluminium foil to protect the light-sensitive dye and left to incubate at 37° C. for 1 h. The dye-loading buffer was removed before the cells were washed with the assay buffer to remove excess loading dye. To each well was added 50 μL of fresh assay buffer before the plate was loaded into a FLIPR (Fluorescent Imaging Plate Reader) that can inject treatments and measure any calcium release. To generate agonist plots, calcium release was monitored for 300 seconds. To generate antagonist plots, calcium release was recorded for 900 seconds, which at the same time would allow incubation for the antagonists. After the initial incubation period, an agonist would be added and the response was recorded for 300 seconds. Intracellular release of calcium was recorded via fluorescence measurements at wavelength of 485 nm for excitation and 520 nm for emission.

[1] = Table 6, competitive binding with [^125I]-C3a, HMDM, read-out: IC50 (converted)
[2] = Table 6, competitive binding with [^125I]-C3a, HMDM
[3] = Table 14, binding affinity for C3aR on HMDM, read-out: -Log IC50 (converted)

Compound	IC50 (C3a receptor (C3aR); [1])	EC50 (C3aR)	pIC50 ± SEM (C3a receptor (C3aR); [2])	other results
CC(C)(C)OC(=O)N[C@@H](Cc1ccccc1)c1nc(C(=O)N[C@@H](CCCNC(=N)N)C(=O)O)co1 [Compound 3, Boc-L-Phenylalanine-Oxazole-Arg]	0.509 µM			
CC(C)(C)OC(=O)N[C@@H](Cc1c[nH]c2ccccc12)c1nc(C(=O)N[C@@H](CCCNC(=N)N)C(=O)O)co1 [Compound 4, Boc-L-Tryptophan-Oxazole-Arg]	2.29 µM			
CC(C)(C)OC(=O)N[C@@H](CC1CCCCC1)c1nc(C(=O)N[C@@H](CCCNC(=N)N)C(=O)O)co1 [Compound 5, Boc-L-Cyclohexylalanine-Oxazole-Arg]	0.082 µM	0.135 µM		
CC[C@H](C)[C@H](NC(=O)c1ccccc1)c1nc(C(=O)N[C@@H](CCCNC(=N)N)C(=O)O)co1 [Compound 6, Benzoyl Isoleucine Oxazole Arginine-OH]	0.026 µM	5 µM	7.58 ± 0.07	pEC50 ± SEM (C3aR): 5.30 ± 0.18
CC[C@H](C)[C@H](NC(=O)C(c1ccccc1)c1ccccc1)c1nc(C(=O)N[C@@H](CCCNC(=N)N)C(=O)O)co1 [Compound 7, Diphenyl Acetic Acid Isoleucine Oxazole Arginine]	0.137 µM	5.6 µM	6.86 ± 0.08	pEC50 ± SEM (C3aR): 5.25 ± 0.31
CC[C@H](C)[C@H](NC(=O)Cc1c[nH]c2ccccc12)c1nc(C(=O)N[C@@H](CCCNC(=N)N)C(=O)O)co1 [Compound 9, 2-(1H-indol-3-yl)acetic acid-Isoleucine-Oxazole-Arginine-OH]	0.152 µM	0.073 µM	6.82 ± 0.10	pEC50 ± SEM (C3aR): 7.14 ± 0.19
CC[C@H](C)[C@H](NC(=O)c1ccc(N(C)C)cc1)c1nc(C(=O)N[C@@H](CCCNC(=N)N)C(=O)O)co1 [Compound 11, 4-(Dimethylamino)benzoic acid-Isoleucine-Oxazole-Arginine-OH]	0.8 µM		6.10 ± 0.16	
CC[C@H](C)[C@H](NC(=O)c1ccc(C(=O)c2ccccc2)cc1)c1nc(C(=O)N[C@@H](CCCNC(=N)N)C(=O)O)co1 [Compound 12, 4-Benzoylbenzoic acid-Isoleucine-Oxazole-Arginine-OH]	0.157 µM		6.80 ± 0.15	
Cc1oc([C@H](CC(C)C)NC(=O)c2ccncc2)nc1C(=O)N[C@@H](CCCNC(=N)N)C(=O)O [Compound 31, Isonicotinic acid-Leucine-5-Methyl-Oxazole-Arginine]				Emax at 10 µM (C3aR): 109%
Cc1oc([C@H](CC(C)C)NC(=O)CCC(C)C)nc1C(=O)N[C@@H](CCCNC(=N)N)C(=O)O [Compound 35, 4-Methyl valeric acid-Leucine-5-Methyl-Oxazole-Arginine]				Emax at 10 µM (C3aR): 95%
COc1cccc(C(=O)N[C@@H](CC(C)C)c2nc(C(=O)N[C@@H](CCCNC(=N)N)C(=O)O)c(C)o2)c1 [Compound 42, m-Anisic acid-Leucine-5-Methyl-Oxazole-Arginine]				Emax at 10 µM (C3aR): 134%
Cc1ccc(NC(=O)N[C@@H](CC(C)C)c2nc(C(=O)N[C@@H](CCCNC(=N)N)C(=O)O)c(C)o2)cc1 [Compound 45, p-Tolyl isocyanate-Leucine-5-Methyl-Oxazole-Arginine]				Emax at 10 µM (C3aR): 64%
Cc1oc([C@H](CC(C)C)NC(=O)c2ccc(Oc3ccccc3)cc2)nc1C(=O)N[C@@H](CCCNC(=N)N)C(=O)O [Compound 49, 4-Phenoxybenzoic acid-Leucine-5-Methyl-Oxazole-Arginine]				Emax at 10 µM (C3aR): 105%
N=C(N)NCCC[C@H](NC(=O)c1ccc(C(c2ccccc2)c2ccccc2)o1)C(=O)O [Compound 57, 5-Diphenylmethyl-furan-2-carboxyl-Arg-OH]				Function at C3aR (agonist / antagonist) (C3aR; text of Example 100): antagonist
N=C(N)NCCC[C@H](NC(=O)c1cnc(C(c2ccccc2)c2ccccc2)s1)C(=O)O [Compound 78]				IC50 (C3a receptor (C3aR); [3]): 0.00398 µM
CC(C)C[C@H](NC(=O)OC(C)(C)C)c1nc(C(=O)N[C@@H](Cc2ccc(C(=N)NO)cc2)C(=O)O)co1 [Compound 84, (S)-2-(2-((S)-1-((tert-butoxycarbonyl)amino)-3-methylbutyl)oxazole-4-carboxamido)-3-(4-(N-hydroxycarbamimidoyl)phenyl)propanoic acid]	0.076 µM			
CC(C)C[C@H](NC(=O)OC(C)(C)C)c1nc(C(=O)N[C@@H](CCCNC(=N)N[N+](=O)[O-])C(=O)O)co1 [Compound 89, (S)-2-(2-((S)-1-((tert-butoxycarbonyl)amino)-3-methylbutyl)oxazole-4-carboxamido)-5-(3-nitroguanidino)pentanoic acid]	0.129 µM			

Further lines, with some results ahead:

IC50 (C3a receptor (C3aR); [1])	EC50 (C3aR)	pIC50 ± SEM (C3a receptor (C3aR); [2])	Compound	other results
1.03 µM			CC(C)Cc1ccc([C@H](C)C(=O)N[C@@H](CC(C)C)c2nc(C(=O)N[C@@H](CCCNC(=N)N)C(=O)O)co2)cc1 [Compound 14, 2-(4-isobutylphenyl)propanoic acid Leucine-Oxazole-Arginine-OH]	
0.451 µM			CC(C)C[C@H](NC(=O)[C@@H](C)c1ccc(N2Cc3ccccc3C2=O)cc1)c1nc(C(=O)N[C@@H](CCCNC(=N)N)C(=O)O)co1 [Compound 15, 2-(4-(1-oxoisoindolin-2-yl)phenyl)propanoic acid Leucine-Oxazole-Arginine-OH]	
0.142 µM		6.85 ± 0.15	CC(C)C[C@H](NC(=O)C1c2ccccc2-c2ccccc21)c1nc(C(=O)N[C@@H](CCCNC(=N)N)C(=O)O)co1 [Compound 17, 9-Fluorenecarboxylic acid-Leu-Oxazole-Arginine-OH]	
0.754 µM	0.744 µM		CC(C)C[C@H](NC(=O)CC(c1ccccc1)c1ccccc1)c1nc(C(=O)N[C@@H](CCCNC(=N)N)C(=O)O)co1 [Compound 19, 3,3-diphenylpropanoic acid-Leucine-Oxazole-Arginine-OH]	
0.005 µM	0.017 µM	8.30 ± 0.10	CC[C@H](C)[C@H](NC(=O)c1cncc(Br)c1)c1nc(C(=O)N[C@@H](CCCNC(=N)N)C(=O)O)co1 [Compound 20]	pEC50 ± SEM (C3aR): 7.76 ± 0.36
0.104 µM	0.24 µM	6.98 ± 0.11	CC[C@H](C)[C@H](NC(=O)C1CCCc2ccccc21)c1nc(C(=O)N[C@@H](CCCNC(=N)N)C(=O)O)co1 (some centres unmarked) [Compound 21, Tetrahydronapthalene-isoleucine-oxazole-arginine-OH]	pEC50 ± SEM (C3aR): 6.62 ± 0.28
	0.06 µM		Cc1c(C(=O)N[C@@H](CCCNC(=N)N)C(=O)O)nc([C@H](CC(C)C)NC(=O)OC(C)(C)C)n1C [Compound 81, Boc-Leucine-1-methylimidazole-Arginine-OH]	
1.22 µM			CC(C)C[C@H](NC(=O)OC(C)(C)C)c1nnc(C(=O)N[C@@H](CCCNC(=N)N)C(=O)O)o1 [Compound 83, Boc-Leucine-1-oxa-3,4-diazole-Arginine-OH]	
1.14 µM			Cc1c(C(=O)N[C@@H](CCCNC(=N)N)C(=O)O)nc(C(c2ccccc2)c2ccccc2)n1C [Compound 97, 2-Benzhydryl-1,5-Dimethyl imidazole-4-carboxyl-Arginine]	IC50 (C3a receptor (C3aR); [3]): 1.26 µM

— US9586914B2, “Modulators of C3a receptors” (THE UNIVERSITY OF QUEENSLAND, priority 2011, dated 2017)
